Test results as given in ChEMBL document CHEMBL1140763, “Design, synthesis, and in vitro evaluation of new naphthylnitrobutadienes with potential antiproliferative activity: toward a structure/activity correlation” (Bioorg Med Chem, 2008).
Each block holds one compound with its values, some of them ahead of it.

Legend:
Jurkat [1] = test: Cytotoxicity against human Jurkat cells after 72 hrs by Trypan blue assay; type: functional
MDA-MB-231 [2] = test: Antiproliferative activity against human MDA-MB-231 cells by MTT assay; type: functional, cell-based
P388 [3] = test: Effect on interstrand cross linking in DNA in mouse P388 cells at 0.1 uM; type: functional
A549 [4] = test: Induction of apoptosis in human A549 cells by DAPI assay; type: functional
Jurkat [5] = test: Cell cycle arrest in human Jurkat cells assessed as accumulation at S phase at 1.56 uM after 48 hrs; type: functional
NCI-H1299 = test: Induction of apoptosis in human H1299 cells by DAPI assay; type: functional
HCT-8 [6] = test: Induction of apoptosis in human HCT8 cells by DAPI assay; type: functional
[7] = Antiproliferative activity against human H1299 cells by MTT assay; type: functional, cell-based; details: NCI-H1299
PA-1 [8] = test: Cytotoxicity against human PA1 cells after 72 hrs by Trypan blue assay; type: functional
HCT-8 [9] = test: Cytotoxicity against human HCT8 cells after 72 hrs by Trypan blue assay; type: functional
PA-1 [10] = test: Induction of apoptosis in human PA1 cells by DAPI assay; type: functional
P388 [11] = test: Antiproliferative activity against mouse P388 cells by MTT assay; type: functional, cell-based
Jurkat [12] = test: Cell cycle arrest in human Jurkat cells assessed as accumulation at G2/M phase at 1.56 uM after 48 hrs; type: functional
A549 [13] = test: Cell cycle arrest in human A549 cells assessed as accumulation at G2/M phase at 1.56 uM after 48 hrs; type: functional
A549 [14] = test: Cytotoxicity against human A549 cells after 72 hrs by Trypan blue assay; type: functional
A549 [15] = test: Cell cycle arrest in human A549 cells assessed as accumulation at S phase at 25 uM after 48 hrs; type: functional
A549 [16] = test: Cell cycle arrest in human A549 cells assessed as accumulation at S phase at 6.25 uM after 48 hrs; type: functional
Jurkat [17] = test: Cell cycle arrest in human Jurkat cells assessed as accumulation at G0/G1 phase at 6.25 uM after 48 hrs; type: functional
A549 [18] = test: Cell cycle arrest in human A549 cells assessed as accumulation at G2/M phase at 6.25 uM after 48 hrs; type: functional
A2780 [19] = test: Antiproliferative activity against human A2780 cells by MTT assay; type: functional, cell-based
HGC-27 [20] = test: Cytotoxicity against human HGC27 cells after 72 hrs by Trypan blue assay; type: functional
A549 [21] = test: Antiproliferative activity against human A549 cells by MTT assay; type: functional, cell-based
Jurkat [22] = test: Cell cycle arrest in human Jurkat cells assessed as accumulation at S phase at 6.25 uM after 48 hrs; type: functional
A2780 [23] = test: Induction of apoptosis in human A2780 cells by DAPI assay; type: functional
A549 [24] = test: Cell cycle arrest in human A549 cells assessed as accumulation at G2/M phase at 25 uM after 48 hrs; type: functional
P388 [25] = test: Cytotoxicity against mouse P388 cells after 72 hrs by Trypan blue assay; type: functional
PA-1 [26] = test: Stimulation of p53 oncoprotein expression in human PA1 cells at 1.6 uM; type: functional
Jurkat [27] = test: Cell cycle arrest in human Jurkat cells assessed as accumulation at G0/G1 phase at 25 uM after 48 hrs; type: functional
HGC-27 [28] = test: Induction of apoptosis in human HGC27 cells by DAPI assay; type: functional
A549 [29] = test: Stimulation of p53 oncoprotein expression in human A549 cells at 6 uM after 72 hrs; type: functional
Jurkat [30] = test: Cell cycle arrest in human Jurkat cells assessed as accumulation at G2/M phase at 6.25 uM after 48 hrs; type: functional
MDA-MB-231 [31] = test: Induction of apoptosis in human MDA-MB-231 cells by DAPI assay; type: functional
MDA-MB-231 [32] = test: Cytotoxicity against human MDA-MB-231 cells after 72 hrs by Trypan blue assay; type: functional
Jurkat [33] = test: Antiproliferative activity against human Jurkat cells by MTT assay; type: functional, cell-based
HGC-27 [34] = test: Antiproliferative activity against human HGC27 cells by MTT assay; type: functional, cell-based
P388 [35] = test: Induction of apoptosis in mouse P388 cells by DAPI assay; type: functional
Jurkat [36] = test: Cell cycle arrest in human Jurkat cells assessed as accumulation at G0/G1 phase at 1.56 uM after 48 hrs; type: functional
HCT-8 [37] = test: Antiproliferative activity against human HCT8 cells by MTT assay; type: functional, cell-based
Jurkat [38] = test: Cell cycle arrest in human Jurkat cells assessed as accumulation at G2/M phase at 25 uM after 48 hrs; type: functional
P388 [39] = test: Effect on interstrand cross linking in DNA in mouse P388 cells at 1 uM; type: functional
A549 [40] = test: Cell cycle arrest in human A549 cells assessed as accumulation at G0/G1 phase at 25 uM after 48 hrs; type: functional
A549 [41] = test: Cell cycle arrest in human A549 cells assessed as accumulation at G0/G1 phase at 6.25 uM after 48 hrs; type: functional
Jurkat [42] = test: Cell cycle arrest in human Jurkat cells assessed as accumulation at S phase at 25 uM after 48 hrs; type: functional
[43] = Cytotoxicity against human H1299 cells after 72 hrs by Trypan blue assay; type: functional, NCI-H1299
A2780 [44] = test: Cytotoxicity against human A2780 cells after 72 hrs by Trypan blue assay; type: functional
Jurkat [45] = test: Induction of apoptosis in human Jurkat cells by DAPI assay; type: functional
PA-1 [46] = test: Antiproliferative activity against human PA1 cells by MTT assay; type: functional, cell-based
A549 [47] = test: Cell cycle arrest in human A549 cells assessed as accumulation at S phase at 1.56 uM after 48 hrs; type: functional
A549 [48] = test: Cell cycle arrest in human A549 cells assessed as accumulation at G0/G1 phase at 1.56 uM after 48 hrs; type: functional
MDA-MB-231 [49] = test: Stimulation of p53 oncoprotein expression in human MDA-MB-231 cells at 0.9 uM; type: functional

IC50 (MDA-MB-231 [2]): 0.9 µM | IC50 (P388 [11]): 1.4 µM | IC50 (A2780 [19]): 2.1 µM | IC50 (A549 [21]): 6 µM | IC50 (Jurkat [33]): 3.2 µM | IC50 (HCT-8 [37]): 12.7 µM
SMILES: COC(=O)/C(=C/C(=C\c1cccc2ccccc12)[N+](=O)[O-])SC
Activity (Jurkat [1]): 67% | Activity (P388 [3]): 1.7% | Activity (A549 [4]): 60% | Activity (Jurkat [5]): 50.3% | Activity (NCI-H1299): 2% | Activity (HCT-8 [6]): 5% | IC50 [7]: 2.8 µM | Activity (PA-1 [8]): 22% | Activity (HCT-8 [9]): 10% | Activity (PA-1 [10]): 11% | Activity (Jurkat [12]): 18.6% | Activity (A549 [13]): 16.6% | Activity (A549 [14]): 46% | Activity (A549 [15]): 22.5% | Activity (A549 [16]): 33% | Activity (Jurkat [17]): 41.3% | Activity (A549 [18]): 18% | Activity (HGC-27 [20]): 21% | Activity (Jurkat [22]): 38.3% | Activity (A2780 [23]): 25% | Activity (A549 [24]): 36.5% | Activity (P388 [25]): 75% | Activity (PA-1 [26]): 2% | Activity (Jurkat [27]): 51.2% | Activity (HGC-27 [28]): 7% | Activity (A549 [29]): 2% | Activity (Jurkat [30]): 20.4% | Activity (MDA-MB-231 [31]): 4% | Activity (MDA-MB-231 [32]): 16% | IC50 (HGC-27 [34]): 2.1 µM | Activity (P388 [35]): 27% | Activity (Jurkat [36]): 31.1% | Activity (Jurkat [38]): 26.4% | Activity (P388 [39]): 3.5% | Activity (A549 [40]): 41.2% | Activity (A549 [41]): 49% | Activity (Jurkat [42]): 22.4% | Activity [43]: 14% | Activity (A2780 [44]): 55% | Activity (Jurkat [45]): 14% | IC50 (PA-1 [46]): 1.6 µM | Activity (A549 [47]): 36.9% | Activity (A549 [48]): 46.5% | Activity (MDA-MB-231 [49]): 2%

IC50 (MDA-MB-231 [2]): 9.3 µM | IC50 (P388 [11]): 2.1 µM | IC50 (A2780 [19]): 2 µM | IC50 (A549 [21]): 14.3 µM | IC50 (Jurkat [33]): 2.8 µM | IC50 (HCT-8 [37]): 9.8 µM
SMILES: O=[N+]([O-])C(=C/c1cccc2ccccc12)/C(=C\c1cccc2ccccc12)[N+](=O)[O-]
IC50 (HGC-27 [34]): 9 µM | IC50 (PA-1 [46]): 3.6 µM

IC50 (P388 [11]): 145 µM | IC50 (A2780 [19]): 360 µM | IC50 (Jurkat [33]): 172 µM
SMILES: O=C(O)c1ccc(/C=C(\C(=C/c2ccc(C(=O)O)c3ccccc23)[N+](=O)[O-])[N+](=O)[O-])c2ccccc12
IC50 (PA-1 [46]): 129 µM
